The test system of this assay is Fusarium graminearum. Briefly: microbe, parasite or virus in culture. In kind it is cell-based.

In brackets after ≈: the same amount, converted by molar mass.

On to `CC1(C)CCC(Cc2ccc(Cl)cc2)C1(O)Cn1cncn1` (stereo not drawn) [Metconazole], for which the ED50 by setting is: (F.g carbendazim-resistant strains) 0.113 µg/mL (≈ 0.353 µM); (F.g phenamacril-resistant strains) 0.115 µg/mL (≈ 0.36 µM). The inhibition at 0.125 µg/mL (Fusarium graminearum, read-out: inhibitory effect on hyphal growth) is greater than 50%.
